Assay results: PubChem BioAssay AID330 (DTP/NCI, 2004)
Where “and” joins values, the source holds several entries; their conditions need not be identical. Equal entries are not always repeated. Toxic doses and inconclusive results are not listed. Rule for the calls: active = survival T/C of 150% or more; inactive = T/C below 125% in these data.

System: P388 leukemia ip, CD2F1 mice, survival T/C
Experiment: NCI In Vivo Anticancer Drug Screen. Data for tumor model P388 Leukemia (intraperitoneal) in CD2F1 (CDF1) mice
Conditions: endpoint: median survival time, higher = longer survival
In short: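 Mice carrying the transplanted tumor received test compound or vehicle. Survival was recorded in each group, and the value is the treated-group measurement divided by that of the vehicle-treated control group.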

[1] = dose: 50.0 mg/kg/injection, schedule: Q01DX005 (ip), vehicle: Klucel (hydroxypropylcellulose) (HPC)
[2] = dose: 100.0 mg/kg/injection, schedule: Q01DX005 (ip), vehicle: Klucel (hydroxypropylcellulose) (HPC)
[3] = dose: 60.0 mg/kg/injection, schedule: Q01DX005 (ip), vehicle: saline with Tween-80
[4] = dose: 120.0 mg/kg/injection, schedule: Q01DX005 (ip), vehicle: saline with Tween-80
[5] = dose: 50.0 mg/kg/injection, schedule: Q01DX005 (ip), vehicle: saline with Tween-80
[6] = dose: 100.0 mg/kg/injection, schedule: Q01DX005 (ip), vehicle: saline with Tween-80
[7] = dose: 200.0 mg/kg/injection, schedule: Q01DX005 (ip), vehicle: saline with Tween-80
[8] = dose: 12.5 mg/kg/injection, schedule: Q01DX009 (ip), vehicle: saline with Tween-80
[9] = dose: 25.0 mg/kg/injection, schedule: Q01DX009 (ip), vehicle: saline with Tween-80
[10] = dose: 50.0 mg/kg/injection, schedule: Q01DX009 (ip), vehicle: saline with Tween-80
[11] = dose: 100.0 mg/kg/injection, schedule: Q04DX003 (ip), vehicle: Klucel (hydroxypropylcellulose) (HPC)
[12] = dose: 200.0 mg/kg/injection, schedule: Q04DX003 (ip), vehicle: Klucel (hydroxypropylcellulose) (HPC)
[13] = dose: 60.0 mg/kg/injection, schedule: Q01DX005 (ip), vehicle: Klucel (hydroxypropylcellulose) (HPC)
[14] = dose: 120.0 mg/kg/injection, schedule: Q01DX005 (ip), vehicle: Klucel (hydroxypropylcellulose) (HPC)
[15] = dose: 240.0 mg/kg/injection, schedule: Q01DX005 (ip), vehicle: Klucel (hydroxypropylcellulose) (HPC)
[16] = dose: 240.0 mg/kg/injection, schedule: Q01DX005 (ip), vehicle: saline with Tween-80
[17] = dose: 25.0 mg/kg/injection, schedule: Q01DX005 (ip), vehicle: Klucel (hydroxypropylcellulose) (HPC)
[18] = dose: 100.0 mg/kg/injection, schedule: Q04DX002 (ip), vehicle: saline with Tween-80

Measured: T/C

O=[N+]([O-])c1ccc(CSSCc2ccc([N+](=O)[O-])cc2)cc1
inactive: [1] 98 % of control | [2] 100 % of control | dose: 200.0 mg/kg/injection, schedule: Q01DX005 (ip), vehicle: Klucel (hydroxypropylcellulose) (HPC) 105 % of control

CN(C)B(N(C)C)N(C)C
inactive: [3] 101 % of control | [4] 102 % of control

C/C(=N/OC1=CC(=O)CC(C)(C)C1)c1ccccc1
inactive: [5] 104 % of control | [6] 104 % of control | [7] 99 % of control

CCN(CC)CCCC(C)Nc1cc(C)nc2ccc(N(C)C)cc12 (configuration not stated)
inactive: dose: 15.0 mg/kg/injection, schedule: Q01DX005 (ip), vehicle: saline with Tween-80 108 % of control | dose: 30.0 mg/kg/injection, schedule: Q01DX005 (ip), vehicle: saline with Tween-80 105 % of control | [3] 100 % of control and 103 % of control

CN1C(=O)C(O)(C2=C3OCOC3=CC(=O)C2=O)c2ccccc21 (configuration not stated)
inactive: dose: 6.25 mg/kg/injection, schedule: Q01DX005 (ip), vehicle: saline 105 % of control | dose: 12.5 mg/kg/injection, schedule: Q01DX005 (ip), vehicle: saline 103 % of control | dose: 25.0 mg/kg/injection, schedule: Q01DX005 (ip), vehicle: saline 102 % of control

O=[n+]1c2c(n([O-])c3cc(Cl)c(Cl)cc31)CCCC2
inactive: [8] 87 % of control | [9] 89 % of control | [10] 98 % of control and 86 % of control

Cn1c(=O)c2c(ncn2CCCl)n(C)c1=O
inactive: dose: 12.5 mg/kg/injection, schedule: Q01DX005 (ip), vehicle: distilled water + Tween-80 100 % of control | dose: 25.0 mg/kg/injection, schedule: Q01DX005 (ip), vehicle: distilled water + Tween-80 105 % of control | dose: 50.0 mg/kg/injection, schedule: Q01DX005 (ip), vehicle: distilled water + Tween-80 105 % of control | dose: 100.0 mg/kg/injection, schedule: Q01DX005 (ip), vehicle: distilled water + Tween-80 102 % of control

O=c1c2ccccc2nnn1O
inactive: [11] 108 % of control | [12] 108 % of control

NC(=S)n1nc(-c2ccccc2)c(N=Nc2ccccc2C(F)(F)F)c1-c1ccccc1
inactive: [5] 102 % of control | [6] 93 % of control | [7] 88 % of control

CCOC(=O)NN(C(=O)OCC)C(C(C)=O)c1ccccc1 (configuration not stated)
inactive: [13] 105 % of control | [14] 103 % of control | [15] 103 % of control

CC1Cc2ccc(OCCN(C)C)cc2C1O (configuration not stated)
inactive: dose: 50.0 mg/kg/injection, schedule: Q01DX005 (ip), vehicle: saline 104 % of control | dose: 100.0 mg/kg/injection, schedule: Q01DX005 (ip), vehicle: saline 102 % of control | dose: 200.0 mg/kg/injection, schedule: Q01DX005 (ip), vehicle: saline 104 % of control

CC(C)(C)C(=O)CC(=O)C(F)(F)C(F)(F)C(F)(F)F.CC(C)(C)C(=O)CC(=O)C(F)(F)C(F)(F)C(F)(F)F.CC(C)(C)C(=O)CC(=O)C(F)(F)C(F)(F)C(F)(F)F.[Pr]
inactive: [4] 116 % of control | [16] 113 % of control

COc1ccc2cc3ccncc3cc2c1OC
inactive: dose: 12.5 mg/kg/injection, schedule: Q01DX009 (ip), vehicle: water 96 % of control | dose: 25.0 mg/kg/injection, schedule: Q01DX009 (ip), vehicle: water 99 % of control | dose: 50.0 mg/kg/injection, schedule: Q01DX009 (ip), vehicle: water 99 % of control | dose: 100.0 mg/kg/injection, schedule: Q01DX009 (ip), vehicle: water 97 % of control | dose: 200.0 mg/kg/injection, schedule: Q01DX009 (ip), vehicle: water 105 % of control

Cc1ccc(C)c2c1C(O)(C#Cc1ccccc1)c1c(C)ccc(C)c1C2(O)C#Cc1ccccc1 (configuration not stated)
inactive: [17] 90 % of control | [1] 93 % of control | [2] 86 % of control

C=CC(=NC(C)(C)C)Nc1ccccc1C#N
inactive: dose: 3.12 mg/kg/injection, schedule: Q01DX009 (ip), vehicle: saline with Tween-80 106 % of control | dose: 6.25 mg/kg/injection, schedule: Q01DX009 (ip), vehicle: saline with Tween-80 106 % of control | [8] 100 % of control and 117 % of control

c1ccc2c(c1)Cc1c(-c3noc4c3Cc3ccccc3-4)noc1-2
inactive: dose: 60.0 mg/kg/injection, schedule: Q01DX005 (ip), vehicle: Klucel + Tween-80 100 % of control | dose: 120.0 mg/kg/injection, schedule: Q01DX005 (ip), vehicle: Klucel + Tween-80 90 % of control | dose: 240.0 mg/kg/injection, schedule: Q01DX005 (ip), vehicle: Klucel + Tween-80 91 % of control

O=[N+]([O-])c1cc(Br)c2cccc3c2c1CC3
inactive: [17] 91 % of control | [1] 93 % of control | [2] 90 % of control

CC(C)CC(NC(=O)C(N)Cc1c[nH]c2ccccc12)C(=O)O (configuration not stated)
inactive: dose: 50.0 mg/kg/injection, schedule: Q01DX009 (ip), vehicle: saline 96 % of control | dose: 100.0 mg/kg/injection, schedule: Q01DX009 (ip), vehicle: saline 95 % of control | dose: 200.0 mg/kg/injection, schedule: Q01DX009 (ip), vehicle: saline 118 % of control

CCC1=CC(C(O)CC(C)C)C(C)(Cc2ccc(CC)cn2)NC1c1ccccc1 (configuration not stated)
inactive: [18] 96 % of control

CCc1ccccc1NC(=O)C(=O)CC(=O)C1=C(C)Nc2ccccc2S1
inactive: [3] 90 % of control | [4] 96 % of control | [16] 99 % of control

CCCCCCSc1nn(CCC#N)c(=O)[nH]c1=O
inactive: dose: 25.0 mg/kg/injection, schedule: Q01DX005 (ip), vehicle: distilled water + alcohol 103 % of control | dose: 50.0 mg/kg/injection, schedule: Q01DX005 (ip), vehicle: distilled water + alcohol 108 % of control | dose: 100.0 mg/kg/injection, schedule: Q01DX005 (ip), vehicle: distilled water + alcohol 103 % of control | dose: 200.0 mg/kg/injection, schedule: Q01DX005 (ip), vehicle: distilled water + alcohol 92 % of control

CCOC(=O)Nc1cccc([N+](=O)[O-])c1
inactive: dose: 100.0 mg/kg/injection, schedule: Q04DX003 (ip), vehicle: other 95 % of control | dose: 200.0 mg/kg/injection, schedule: Q04DX003 (ip), vehicle: other 95 % of control | dose: 400.0 mg/kg/injection, schedule: Q04DX003 (ip), vehicle: other 100 % of control

NC(=O)NC(N)=S
inactive: [9] 100 % of control | [10] 105 % of control | dose: 100.0 mg/kg/injection, schedule: Q01DX009 (ip), vehicle: saline with Tween-80 99 % of control | dose: 200.0 mg/kg/injection, schedule: Q01DX009 (ip), vehicle: saline with Tween-80 98 % of control

N#CC(C(O)c1ccccc1)N1CCOCC1 (configuration not stated)
inactive: dose: 50.0 mg/kg/injection, schedule: Q01DX009 (ip), vehicle: suspension in saline 102 % of control | dose: 100.0 mg/kg/injection, schedule: Q01DX009 (ip), vehicle: suspension in saline 109 % of control | dose: 200.0 mg/kg/injection, schedule: Q01DX009 (ip), vehicle: suspension in saline 94 % of control

CN1C(c2ccccc2)CC(=C(C#N)c2ccccc2)CC1c1ccccc1 (configuration not stated)
inactive: dose: 30.0 mg/kg/injection, schedule: Q01DX005 (ip), vehicle: Klucel (hydroxypropylcellulose) (HPC) 103 % of control | [13] 107 % of control | [14] 93 % of control | [15] 104 % of control

Clc1ccccc1N/N=c1\nnc2c(Cl)cccc2s1
inactive: dose: 50.0 mg/kg/injection, schedule: Q04DX002 (ip), vehicle: saline with Tween-80 95 % of control | [18] 94 % of control | dose: 200.0 mg/kg/injection, schedule: Q04DX002 (ip), vehicle: saline with Tween-80 91 % of control

CCCCCCCCOC(=O)c1[nH]cnc1/N=N\N(C)C
inactive: [11] 109 % of control | [12] 113 % of control | dose: 400.0 mg/kg/injection, schedule: Q04DX003 (ip), vehicle: Klucel (hydroxypropylcellulose) (HPC) 104 % of control
